Experimental data from ChEMBL document CHEMBL5537113, “Discovery of 1,2-diaryl-3-oxopyrazolidin-4-carboxamides as a new class of MurA enzyme inhibitors and characterization of their antibacterial activity” (Eur J Med Chem, 2023).

What was measured:
[1] = biological target: UDP-N-acetylglucosamine 1-carboxyvinyltransferase (Escherichia coli K-12) (UniProt P0A749); test: Inhibition of Escherichia coli K12 His-tagged MurA expressed in Escherichia coli BL21 cells at 50 uM using UNAG as substrate pre incubated for 15 mins followed by substrate addition and measured after 15 mins by microplate reader analysis relative to control; conditions: time 30.0 min
[2] = Drug uptake in Escherichia coli harboring tolC deletion mutant assessed per 1.6x10^9 cells at 10 uM incubated for 30 mins by LC analysis; format: ADME; conditions: 0.5 h
[3] = tested on: Escherichia coli; test: Antibacterial activity against Escherichia coli harboring tolC deletion mutant assessed as reduction in microbial growth incubated for 16 hrs by serial dilution method; format: functional
[4] = Drug uptake in Escherichia coli harboring tolC deletion mutant at 10 uM incubated for 30 mins by LC analysis; format: ADME; conditions: 0.5 h
[5] = tested on: UDP-N-acetylglucosamine 1-carboxyvinyltransferase (Escherichia coli K-12), P0A749 [C115D]; test: Inhibition of Escherichia coli MurA C115D mutant using UNAG as substrate pre incubated for 15 mins followed by substrate addition and measured after 15 mins by microplate reader analysis; conditions: time 30.0 min
[6] = biological target: UDP-N-acetylglucosamine 1-carboxyvinyltransferase (Escherichia coli K-12, UniProt P0A749, C115D); test: Inhibition of Escherichia coli MurA C115D mutant at 50 uM using UNAG as substrate pre incubated for 15 mins followed by substrate addition and measured after 15 mins by microplate reader analysis relative to control
[7] = tested on: Staphylococcus aureus; test: Antibacterial activity against Staphylococcus aureus Newman D2C NCTC 10833 assessed as reduction in microbial growth incubated for 16 hrs by serial dilution method; format: functional
[8] = biological target: T1, UDP-N-acetylglucosamine 1-carboxyvinyltransferase (Escherichia coli K-12, UniProt P0A749); test: Inhibition of Escherichia coli K12 His-tagged MurA expressed in Escherichia coli BL21 cells using UNAG as substrate pre incubated for 15 mins followed by substrate addition and measured after 15 mins by microplate reader analysis
[9] = tested on: Clostridioides difficile; test: Bactericidal activity against Clostridioides difficile NR-49278 assessed as reduction in microbial growth by broth microdilution method; format: functional
[10] = tested on: Clostridioides difficile; test: Antibacterial activity against Clostridioides difficile NR-32904 assessed as reduction in microbial growth incubated for 48 hrs by broth microdilution method; format: functional
[11] = tested on: Clostridioides difficile; test: Antibacterial activity against Clostridioides difficile HM-88 assessed as reduction in microbial growth incubated for 48 hrs by broth microdilution method; format: functional
[12] = tested on: Lactobacillus gasseri; test: Antibacterial activity against Lactobacillus gasseri HM 403 assessed as reduction in microbial growth incubated for 48 hrs by broth microdilution method; format: functional
[13] = tested on: Bifidobacterium breve; test: Antibacterial activity against Bifidobacterium breve HM1120 assessed as reduction in microbial growth incubated for 48 hrs by broth microdilution method; format: functional
[14] = tested on: Clostridioides difficile; test: Antibacterial activity against Clostridioides difficile NR-49286 assessed as reduction in microbial growth incubated for 48 hrs by broth microdilution method; format: functional
[15] = tested on: Clostridioides difficile; test: Antibacterial activity against Clostridioides difficile NR-49294 assessed as reduction in microbial growth incubated for 48 hrs by broth microdilution method; format: functional
[16] = tested on: Clostridioides difficile; test: Bactericidal activity against Clostridioides difficile ATCC BAA1870 assessed as reduction in microbial growth by broth microdilution method; format: functional
[17] = tested on: Clostridioides difficile; test: Antibacterial activity against Clostridioides difficile NR-49283 assessed as reduction in microbial growth incubated for 48 hrs by broth microdilution method; format: functional
[18] = tested on: Clostridioides difficile; test: Antibacterial activity against Clostridioides difficile NR-49285 assessed as reduction in microbial growth incubated for 48 hrs by broth microdilution method; format: functional
[19] = tested on: Staphylococcus aureus; test: Antibacterial activity against vancomycin resistant Staphylococcus aureus 10 assessed as reduction in microbial growth by CLSI based broth microdilution method; format: functional
[20] = tested on: Clostridioides difficile; test: Antibacterial activity against Clostridioides difficile NR-49284 assessed as reduction in microbial growth incubated for 48 hrs by broth microdilution method; format: functional
[21] = tested on: Bacteroides fragilis; test: Antibacterial activity against Bacteroides fragilis HM 718 assessed as reduction in microbial growth incubated for 48 hrs by broth microdilution method; format: functional
[22] = tested on: Clostridioides difficile; test: Antibacterial activity against Clostridioides difficile NR-49288 assessed as reduction in microbial growth incubated for 48 hrs by broth microdilution method; format: functional
[23] = tested on: Clostridioides difficile; test: Antibacterial activity against Clostridioides difficile NR-32889 assessed as reduction in microbial growth incubated for 48 hrs by broth microdilution method; format: functional
[24] = tested on: Clostridioides difficile; test: Antibacterial activity against Clostridioides difficile NR-32903 assessed as reduction in microbial growth incubated for 48 hrs by broth microdilution method; format: functional
[25] = tested on: Bifidobacterium longum; test: Antibacterial activity against Bifidobacterium longum HM 846 assessed as reduction in microbial growth incubated for 48 hrs by broth microdilution method; format: functional
[26] = tested on: Bacteroides fragilis; test: Antibacterial activity against Bacteroides fragilis HM 719 assessed as reduction in microbial growth incubated for 48 hrs by broth microdilution method; format: functional
[27] = tested on: Clostridioides difficile; test: Antibacterial activity against Clostridioides difficile NR-49279 assessed as reduction in microbial growth incubated for 48 hrs by broth microdilution method; format: functional
[28] = tested on: Clostridioides difficile; test: Antibacterial activity against Clostridioides difficile NR-13436 assessed as reduction in microbial growth incubated for 48 hrs by broth microdilution method; format: functional
[29] = tested on: Clostridioides difficile; test: Bactericidal activity against Clostridioides difficile ATCC 43255 assessed as reduction in microbial growth by broth microdilution method; format: functional
[30] = tested on: Clostridioides difficile; test: Antibacterial activity against Clostridioides difficile NR-49291 assessed as reduction in microbial growth incubated for 48 hrs by broth microdilution method; format: functional
[31] = tested on: Clostridioides difficile; test: Bactericidal activity against Clostridioides difficile NR-32904 assessed as reduction in microbial growth by broth microdilution method; format: functional
[32] = tested on: Clostridioides difficile; test: Bactericidal activity against Clostridioides difficile NR-32895 assessed as reduction in microbial growth by broth microdilution method; format: functional
[33] = tested on: Bifidobacterium angulatum; test: Antibacterial activity against Bifidobacterium angulatum HM 1189 assessed as reduction in microbial growth incubated for 48 hrs by broth microdilution method; format: functional
[34] = tested on: Clostridioides difficile; test: Antibacterial activity against Clostridioides difficile NR-49277 assessed as reduction in microbial growth incubated for 48 hrs by broth microdilution method; format: functional
[35] = tested on: Lactobacillus crispatus; test: Antibacterial activity against Lactobacillus crispatus HM 103 assessed as reduction in microbial growth incubated for 48 hrs by broth microdilution method; format: functional
[36] = tested on: Bacteroides fragilis; test: Antibacterial activity against Bacteroides fragilis HM 709 assessed as reduction in microbial growth incubated for 48 hrs by broth microdilution method; format: functional
[37] = tested on: Clostridioides difficile; test: Antibacterial activity against Clostridioides difficile NR-13427 assessed as reduction in microbial growth incubated for 48 hrs by broth microdilution method; format: functional
[38] = tested on: Streptococcus pneumoniae; test: Antibacterial activity against Streptococcus pneumoniae ATCC 700677 assessed as reduction in microbial growth by CLSI based broth microdilution method; format: functional
[39] = tested on: Lactobacillus crispatus; test: Antibacterial activity against Lactobacillus crispatus HM 420 assessed as reduction in microbial growth incubated for 48 hrs by broth microdilution method; format: functional
[40] = tested on: Clostridioides difficile; test: Antibacterial activity against Clostridioides difficile ATCC 43255 assessed as reduction in microbial growth incubated for 48 hrs by broth microdilution method; format: functional
[41] = tested on: Bacteroides fragilis; test: Antibacterial activity against Bacteroides fragilis HM 20 assessed as reduction in microbial growth incubated for 48 hrs by broth microdilution method; format: functional
[42] = tested on: Clostridioides difficile; test: Antibacterial activity against Clostridioides difficile NR-49282 assessed as reduction in microbial growth incubated for 48 hrs by broth microdilution method; format: functional
[43] = tested on: Clostridioides difficile; test: Bactericidal activity against Clostridioides difficile NR-49284 assessed as reduction in microbial growth by broth microdilution method; format: functional
[44] = tested on: Clostridioides difficile; test: Antibacterial activity against Clostridioides difficile ATCC BAA1870 assessed as reduction in microbial growth incubated for 48 hrs by broth microdilution method; format: functional
[45] = tested on: Bifidobacterium breve; test: Antibacterial activity against Bifidobacterium breve HM 412 assessed as reduction in microbial growth incubated for 48 hrs by broth microdilution method; format: functional
[46] = tested on: Clostridioides difficile; test: Antibacterial activity against Clostridioides difficile NR-32895 assessed as reduction in microbial growth incubated for 48 hrs by broth microdilution method; format: functional
[47] = tested on: Clostridioides difficile; test: Antibacterial activity against Clostridioides difficile NR-49287 assessed as reduction in microbial growth incubated for 48 hrs by broth microdilution method; format: functional
[48] = tested on: Clostridioides difficile; test: Antibacterial activity against Clostridioides difficile NR-49278 assessed as reduction in microbial growth incubated for 48 hrs by broth microdilution method; format: functional
[49] = tested on: Lactobacillus gasseri; test: Antibacterial activity against Lactobacillus gasseri HM 407 assessed as reduction in microbial growth incubated for 48 hrs by broth microdilution method; format: functional
[50] = tested on: Bacillus subtilis; test: Antibacterial activity against Bacillus subtilis ATCC 6633 assessed as reduction in microbial growth incubated for 16 hrs by serial dilution method; format: functional
[51] = tested on: Staphylococcus aureus; test: Antibacterial activity against Staphylococcus aureus Newman assessed as reduction in microbial growth incubated for 16 hrs by serial dilution method; format: functional
[52] = biological target: T1, UDP-N-acetylglucosamine 1-carboxyvinyltransferase; test: Inhibition of Escherichia colo K12 His-tagged MurA expressed in Escherichia coli BL21 cells using UNAG as substrate pre incubated for 10 mins followed by substrate addition and measured after 30 mins by microplate reader analysis

T1 sequence (P0A749 whole entry): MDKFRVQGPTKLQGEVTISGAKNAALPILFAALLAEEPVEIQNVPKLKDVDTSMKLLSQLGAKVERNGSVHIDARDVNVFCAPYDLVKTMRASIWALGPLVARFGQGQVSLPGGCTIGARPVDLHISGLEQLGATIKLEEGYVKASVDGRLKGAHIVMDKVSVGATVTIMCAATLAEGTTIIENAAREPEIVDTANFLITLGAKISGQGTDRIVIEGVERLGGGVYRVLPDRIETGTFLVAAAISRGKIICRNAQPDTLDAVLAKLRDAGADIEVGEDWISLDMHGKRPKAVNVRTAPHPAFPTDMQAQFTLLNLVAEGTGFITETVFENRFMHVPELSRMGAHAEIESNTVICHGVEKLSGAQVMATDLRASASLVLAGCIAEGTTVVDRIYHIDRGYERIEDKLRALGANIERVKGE
Sequence of UDP-N-acetylglucosamine 1-carboxyvinyltransferase (Escherichia coli K-12) (P0A749 whole entry): as above
Sequence of UDP-N-acetylglucosamine 1-carboxyvinyltransferase (Escherichia coli K-12), P0A749 [C115D] (P0A749 whole entry C115D): as the sequence (P0A749 whole entry) above, with C115D counted along it
Sequence of UDP-N-acetylglucosamine 1-carboxyvinyltransferase (Escherichia coli K-12, UniProt P0A749, C115D) (P0A749 whole entry C115D): as the sequence (P0A749 whole entry) above, with C115D counted along it

## O=C(Nc1ccc(-c2cn[nH]c2)cc1)C1CN(c2cccc(Cl)c2)N(c2cccc(Cl)c2)C1=O (stereo not drawn)
[1]
  inhibition: 76.5%
[2]
  Drug uptake: 11 µM
[3]
  MIC: > 40 µM
[4]
  Drug uptake: 348 nM
[5]
  inhibition: 77.2%
[6]
  IC50: 12.4 µM
[7]
  MIC: > 40 µM
[8]
  IC50: 12.2 µM

## CN[C@H](CC(C)C)C(=O)N[C@H]1C(=O)N[C@@H](CC(N)=O)C(=O)N[C@H]2C(=O)N[C@H]3C(=O)N[C@H](C(=O)N[C@H](C(=O)O)c4cc(O)cc(O)c4-c4cc3ccc4O)[C@H](O)c3ccc(c(Cl)c3)Oc3cc2cc(c3O[C@@H]2O[C@H](CO)[C@@H](O)[C@H](O)[C@H]2O[C@H]2C[C@](C)(N)[C@H](O)[C@H](C)O2)Oc2ccc(cc2Cl)[C@H]1O [VANCOMYCIN]
[9]
  MBC: 0.5 µg/mL
[10]
  MIC: 0.5 µg/mL
[11]
  MIC: 0.5 µg/mL
[12]
  MIC: 2 µg/mL
[13]
  MIC: 1 µg/mL
[14]
  MIC: 0.25 µg/mL
[15]
  MIC: 0.25 µg/mL
[16]
  MBC: 2 µg/mL
[17]
  MIC: 0.5 µg/mL
[18]
  MIC: 0.5 µg/mL
[19]
  MIC: 32 µg/mL
[20]
  MIC: 0.5 µg/mL
[21]
  MIC: > 64 µg/mL
[22]
  MIC: 0.5 µg/mL
[23]
  MIC: 2 µg/mL
[24]
  MIC: 0.5 µg/mL
[25]
  MIC: 0.5 µg/mL
[26]
  MIC: > 64 µg/mL
[27]
  MIC: 0.25 µg/mL
[28]
  MIC: 0.5 µg/mL
[29]
  MBC: 1 µg/mL
[30]
  MIC: 0.5 µg/mL
[31]
  MBC: 0.5 µg/mL
[32]
  MBC: 2 µg/mL
[33]
  MIC: 1 µg/mL
[34]
  MIC: 0.5 µg/mL
[35]
  MIC: 1 µg/mL
[36]
  MIC: 64 µg/mL
[37]
  MIC: 2 µg/mL
[38]
  MIC: 2 µg/mL
[39]
  MIC: 1 µg/mL
[40]
  MIC: 0.5 µg/mL
[41]
  MIC: 64 µg/mL
[42]
  MIC: 0.25 µg/mL
[43]
  MBC: 0.5 µg/mL
[44]
  MIC: 1 µg/mL
[45]
  MIC: 1 µg/mL
[46]
  MIC: 2 µg/mL
[47]
  MIC: 1 µg/mL
[48]
  MIC: 0.5 µg/mL
[49]
  MIC: 4 µg/mL

## O=C1/C(=N\O)CN(c2cccc(Cl)c2)N1c1cccc(Cl)c1
[50]
  MIC: 10 µg/mL
[51]
  MIC: 20 µg/mL
[3]
  MIC: 4 µg/mL
[52]
  IC50: 88.1 µM
